Data from patent US20130324530A1 (Novartis AG, priority 2010, published 2013).

Target: Cdk9/cyclinT1 (Homo sapiens, UniProt P50750)
Experiment: Cdk9/CyclinT1 IMAP assay
Conditions: not given

Sequence of Cdk9/cyclinT1 (P50750 whole entry): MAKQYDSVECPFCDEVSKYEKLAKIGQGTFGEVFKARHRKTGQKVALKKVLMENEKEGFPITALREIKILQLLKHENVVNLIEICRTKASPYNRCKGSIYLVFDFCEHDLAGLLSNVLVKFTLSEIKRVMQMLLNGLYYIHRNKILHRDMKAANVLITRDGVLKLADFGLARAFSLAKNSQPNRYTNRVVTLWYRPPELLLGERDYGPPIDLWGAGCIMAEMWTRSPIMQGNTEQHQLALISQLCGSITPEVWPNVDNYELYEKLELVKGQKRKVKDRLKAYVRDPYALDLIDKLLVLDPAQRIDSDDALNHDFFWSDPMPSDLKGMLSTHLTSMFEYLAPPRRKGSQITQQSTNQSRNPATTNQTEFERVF
Sequence of Cdk9/cyclinT1 (O60563 whole entry partner): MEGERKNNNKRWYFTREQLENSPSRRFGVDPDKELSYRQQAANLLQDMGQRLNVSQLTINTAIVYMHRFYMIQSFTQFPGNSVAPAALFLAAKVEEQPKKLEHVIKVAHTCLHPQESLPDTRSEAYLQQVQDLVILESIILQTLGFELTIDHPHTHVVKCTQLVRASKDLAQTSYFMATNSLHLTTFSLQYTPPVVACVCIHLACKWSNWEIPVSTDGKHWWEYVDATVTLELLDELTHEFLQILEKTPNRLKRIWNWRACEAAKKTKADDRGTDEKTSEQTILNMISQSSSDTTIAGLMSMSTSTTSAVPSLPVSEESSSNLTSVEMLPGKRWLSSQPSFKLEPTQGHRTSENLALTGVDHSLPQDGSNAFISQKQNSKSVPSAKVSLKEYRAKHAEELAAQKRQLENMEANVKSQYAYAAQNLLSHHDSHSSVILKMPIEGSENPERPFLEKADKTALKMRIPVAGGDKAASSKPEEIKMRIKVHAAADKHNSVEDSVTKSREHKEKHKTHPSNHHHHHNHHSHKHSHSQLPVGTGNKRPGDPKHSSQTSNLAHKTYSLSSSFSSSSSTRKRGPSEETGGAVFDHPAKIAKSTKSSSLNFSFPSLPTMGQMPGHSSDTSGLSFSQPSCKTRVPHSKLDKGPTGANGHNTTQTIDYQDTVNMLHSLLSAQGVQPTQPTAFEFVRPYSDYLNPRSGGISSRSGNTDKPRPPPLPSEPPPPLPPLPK

SMILES	IC50 [nM]
CN1CCC(CNc2cc(-c3cncc(NCC4CCOCC4)c3)c(Cl)cn2)CC1 [Compound 28]	1970
N[C@H]1CC[C@H](Nc2cc(-c3cc(NCC4CCOCC4)cnc3Cl)c(Cl)cn2)CC1 [Compound 79]	< 8
OCCCNc1cc(-c2cncc(NCC3CCOCC3)c2)c(Cl)cn1 [Compound 57]	199
CC(=O)N1CCC(CNc2cncc(-c3cc(N[C@H]4CC[C@H](N)CC4)ncc3Cl)c2)CC1 [Compound 36, 1-(4-((2′-(trans-4-aminocyclohexylamino)-5′-chloro-3,4′-bipyridin-5-ylamino)methyl)piperidin-1-yl)ethanone]	32
N[C@H]1CC[C@H](Nc2cc(-c3cncc(NCC4CCOCC4)c3)c(Cl)cn2)CC1 [Compound 63, N2′-(trans-4-aminocyclohexyl)-5′-chloro-N5-((tetrahydro-2H-pyran-4-yl)methyl)-3,4′-bipyridine-2′,5-diamine]	18
N[C@H]1CC[C@H](Nc2cc(-c3cnc(N4CCOCC4)c(NCc4cccc(F)c4)c3)c(Cl)cn2)CC1 [Compound 45]	610
N[C@H]1CC[C@H](Nc2cc(-c3cncc(NCc4cccc(F)c4)c3)c(Cl)cn2)CC1 [Compound 24, N2′-(trans-4-aminocyclohexyl)-5′-chloro-N5-(3-fluorobenzyl)-3,4′-bipyridine-2′,5-diamine]	< 8
COCCN[C@H]1CC[C@H](Nc2cc(-c3cnc(Cl)c(NCC4CCOCC4)c3)c(Cl)cn2)CC1 [Compound 78, 5′,6-dichloro-N2′-(trans-4-(2-methoxyethylamino)cyclohexyl)-N5-((tetrahydro-2H-pyran-4-yl)methyl)-3,4′-bipyridine-2′,5-diamine]	< 8
O[C@H]1CC[C@H](Nc2cc(-c3cncc(NCc4cccc(F)c4)c3)c(Cl)cn2)CC1 [Compound 62]	< 8
CC(C)(CN)CNc1cc(-c2cncc(NCc3cccc(F)c3)c2)c(Cl)cn1 [Compound 12]	32
OCCNc1cc(-c2cncc(NCC3CCOCC3)c2)c(Cl)cn1 [Compound 68]	820
Fc1cccc(CNc2cc(-c3cc(NC4CCCC4)ncc3Cl)cnc2N2CCOCC2)c1 [Compound 66]	1490
NC[C@H]1CC[C@H](Nc2cc(-c3cncc(NCc4cccc(F)c4)c3)c(Cl)cn2)CC1 [Compound 39, N2′-(trans-4-(aminomethyl)cyclohexyl)-5′-chloro-N5-(3-fluorobenzyl)-3,4′-bipyridine-2′,5-diamine]	< 8
N[C@H]1CC[C@H](Nc2cc(-c3cncc(NCc4cc(F)ccc4F)c3)c(Cl)cn2)CC1 [Compound 43]	< 8
NC[C@H]1CC[C@H](Nc2cc(-c3cncc(OCc4cccc(F)c4)c3)c(Cl)cn2)CC1 [Compound 89]	< 1
CN(C)CC(C)(C)CNc1cc(-c2cncc(NCc3cccc(F)c3)c2)c(Cl)cn1 [Compound 13]	130

SMILES	IC50 [nM]
OCCCNc1cc(-c2cncc(NCc3cccc(F)c3)c2)c(Cl)cn1 [Compound 40]	< 8
C[C@@H](CO)Nc1cc(-c2cncc(NCC3CCOCC3)c2)c(Cl)cn1 [Compound 67]	335
NCCCNc1cc(-c2cncc(NCc3cccc(F)c3)c2)c(Cl)cn1 [Compound 60]	< 8
O[C@H]1CC[C@@H](Nc2cc(-c3cc(NCC4CCOCC4)cnc3Cl)c(Cl)cn2)CC1 [Compound 17]	25
Clc1cnc(NC2CC2)cc1-c1cncc(NCC2CCOCC2)c1 [Compound 27]	57
Fc1cccc(CNc2cncc(-c3cc(NCC4CCOCC4)ncc3Cl)c2)c1 [Compound 70]	9
NCC(O)CNc1cc(-c2cncc(NCc3cccc(F)c3)c2)c(Cl)cn1 (centres unmarked) [Compound 50]	10
O[C@H]1CC[C@H](Nc2cc(-c3cnc(Cl)c(NCC4CCOCC4)c3)c(Cl)cn2)CC1 [Compound 86]	< 8
CO[C@H](CN[C@H]1CC[C@H](Nc2cc(-c3cc(NCC4CCOCC4)cnc3Cl)c(Cl)cn2)CC1)C(F)(F)F [Compound 72, 2,5′-dichloro-N5-((tetrahydro-2H-pyran-4-yl)methyl)-N2′-(trans-4-((R)-3,3,3-trifluoro-2-methoxypropylamino)cyclohexyl)-3,4′-bipyridine-2′,5-diamine]	7
COc1ncc(-c2cc(N[C@H]3CC[C@H](N)CC3)ncc2Cl)cc1NCC1CCOCC1 [Compound 85]	96
N[C@H]1CC[C@H](Nc2cc(-c3cncc(NCc4ccccc4)c3)c(Cl)cn2)CC1 [Compound 51]	< 8
OC[C@H]1CC[C@H](Nc2cc(-c3cnc(Cl)c(NCC4CCOCC4)c3)c(Cl)cn2)CC1 [Compound 80]	< 8
COCCN[C@H]1CC[C@H](Nc2cc(-c3cncc(NCc4cccc(F)c4)c3)c(Cl)cn2)CC1 [Compound 82]	< 8
CN(Cc1cccc(F)c1)c1cncc(-c2cc(N[C@H]3CC[C@H](N)CC3)ncc2Cl)c1 [Compound 32]	16
O[C@H]1CCCC[C@@H]1N[C@H]1CC[C@H](Nc2cc(-c3cc(NCC4CCOCC4)cnc3Cl)c(Cl)cn2)CC1 [Compound 90]	2.8

Tested on: neointima formation
Experiment: not given
Conditions: rats; cited from earlier work

SMILES	inhibition of neointima formation
COc1ccc(CNc2nc(N(CCO)CCO)nc3c2ncn3C(C)C)cc1 [CVT-313]	greater than 80%
